The target of data set [1] is T1, Heat shock factor protein 1 (Mus musculus, UniProt P38532).
T1 sequence (P38532 whole entry): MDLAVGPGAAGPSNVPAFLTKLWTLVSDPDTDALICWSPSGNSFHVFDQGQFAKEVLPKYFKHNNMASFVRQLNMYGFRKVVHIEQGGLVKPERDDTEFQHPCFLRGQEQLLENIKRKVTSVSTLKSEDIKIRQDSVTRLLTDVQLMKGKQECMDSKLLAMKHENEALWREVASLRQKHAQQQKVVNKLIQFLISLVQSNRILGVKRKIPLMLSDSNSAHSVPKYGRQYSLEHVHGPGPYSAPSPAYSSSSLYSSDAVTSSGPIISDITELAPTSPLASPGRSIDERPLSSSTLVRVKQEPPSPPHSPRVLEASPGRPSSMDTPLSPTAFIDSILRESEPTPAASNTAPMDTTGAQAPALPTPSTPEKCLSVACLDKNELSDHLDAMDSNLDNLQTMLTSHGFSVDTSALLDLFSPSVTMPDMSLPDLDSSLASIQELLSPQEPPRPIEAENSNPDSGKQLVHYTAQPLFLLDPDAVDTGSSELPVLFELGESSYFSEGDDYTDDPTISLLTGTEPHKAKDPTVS
Kind of data set: HSF1 potentiators in luciferase reporter cells, confirmation, cell-based, NIH3T3, luminescence, dose retest (AID 435004).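 Also: stress induced by proteasome inhibitor MG132 added 30 min after compound; luciferase reporter driven by HSF1 response element in NIH3T3 cells; actives raise luminescence as potentiators of the MG132 stress response.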 In kind it is functional. (Reporter assays use an easily measured gene product as a stand-in for the process of interest.)

Data set [2] has as its target T2, Corticotropin-releasing factor receptor 2/Corticotropin-releasing factor-binding protein (Homo sapiens, UniProt P24387+Q13324).
T2 sequence (Q13324 whole entry): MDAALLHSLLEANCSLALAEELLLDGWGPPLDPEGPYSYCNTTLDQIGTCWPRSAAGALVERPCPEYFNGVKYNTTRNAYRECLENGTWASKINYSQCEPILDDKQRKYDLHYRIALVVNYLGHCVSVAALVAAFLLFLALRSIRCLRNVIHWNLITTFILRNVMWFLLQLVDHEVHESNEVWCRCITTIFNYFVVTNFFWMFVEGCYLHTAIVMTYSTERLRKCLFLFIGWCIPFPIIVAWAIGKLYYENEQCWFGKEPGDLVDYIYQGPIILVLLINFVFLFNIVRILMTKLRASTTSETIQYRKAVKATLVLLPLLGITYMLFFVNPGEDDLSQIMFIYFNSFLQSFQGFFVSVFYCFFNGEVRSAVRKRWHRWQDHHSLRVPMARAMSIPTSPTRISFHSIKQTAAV
T2 sequence (P24387 whole entry): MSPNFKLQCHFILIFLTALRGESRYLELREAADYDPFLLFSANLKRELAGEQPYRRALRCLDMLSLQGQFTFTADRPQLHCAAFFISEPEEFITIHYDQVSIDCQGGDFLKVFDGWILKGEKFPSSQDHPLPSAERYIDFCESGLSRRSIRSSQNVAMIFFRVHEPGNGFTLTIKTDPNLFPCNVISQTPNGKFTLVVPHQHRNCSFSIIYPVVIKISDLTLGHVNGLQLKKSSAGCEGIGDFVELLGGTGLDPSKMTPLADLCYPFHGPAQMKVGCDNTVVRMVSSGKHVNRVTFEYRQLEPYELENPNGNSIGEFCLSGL
Kind of data set: activators of CRF receptor 2 with binding protein – uHTS hits, confirmation (AID 602473). The format is functional. To be noted: read-out: EC50_Mean.

A short description of data set [3]: Luminescence Cell-Based Dose Response HTS to Identify Activators of Luciferase Translation or Activity in H4 […] Cells. [Related pubchem assays: 1829 (Project Summary), 1814 (Primary HTS)]. In kind it is functional.
Data set [4] is described as follows: Luminescence Cell-Based Dose Confirmation HTS to Identify Activators of 5'UTR Stem-Loop Driven Alpha-Synuclein mRNA Translation in H4 Neuroglioblastoma Cells. [Related pubchem assays: 1829 (Project Summary), 1814 (Primary HTS)]. The format is functional.
In the next data set the test system is H4. Kind of data set: Luminescence Cell-Based Dose Response HTS to Identify Activators of 5'UTR Stem-Loop Driven Prion Protein mRNA Translation in H4 Neuroglioblastoma Cells. [Related pubchem assays: 1829 (Project Summary), 1814 (Primary HTS)]. The format is functional. The settings on record: Homo sapiens.
In data set [5] the target is T2, Corticotropin-releasing factor receptor 2/Corticotropin-releasing factor-binding protein. Description: Dose Response confirmation of uHTS hits for small molecule antagonists of the CRF-binding protein and CRF-R2 receptor complex. The settings on record: read-out: IC50_Mean. In kind it is functional.
Data set [6] in a line: C. albicans growth with fluconazole, confirmation, fluorescence, retest (AID 2467). The format is functional, cell-based.
Data set [7] can be described thus: NIH-3T3 fibroblast cytotoxicity, dose response, cytotoxicity control, cell-based, fluorescence, Alamar Blue, secondary assay (AID 2327).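 Also: NIH-3T3 mouse fibroblasts cultured with fluconazole at 8 µg/mL.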 In kind it is functional. (The colour change of resazurin is a common sign of viable cells or microbes.)
Data set [8] is described as follows: inhibitors of intracellular T. cruzi replication, confirmation, NIH3T3 host cells, beta-gal luminescence (AID 2044).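 Also: intracellular parasites grown in NIH/3T3 mouse fibroblasts as host cells; luminescent beta-galactosidase reporter signal from transgenic T. cruzi replicating inside host cells; inhibitors lower the luminescence signal.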 In kind it is functional, cell-based.
Data set [9] is described as follows: cytotoxicity toward NIH3T3 fibroblasts, dose response, counter-screen, cell-based, ATP luminescence, mouse fibroblasts (AID 2010).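 Also: cells exposed to compound for about 90 hours before reading.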 In kind it is functional. (In general: A counterscreen serves to expose hits that act by an unwanted route or on another target.)
Data set [10] in a line: cells. In kind it is functional, cell-based.
A short description of data set [11]: cells. In kind it is functional, cell-based. The source holds these as a separate data set.
The next data set deals with Cytochrome P450 2C19 (Homo sapiens, UniProt P33261). Kind of data set: Cytochrome panel assay with activity outcomes. Panel member name: p450-cyp2c19 Compounds with AC50 equal or less than 10 uM are considered active. The format is functional.
Chain of Cytochrome P450 2C19 (P33261 whole entry): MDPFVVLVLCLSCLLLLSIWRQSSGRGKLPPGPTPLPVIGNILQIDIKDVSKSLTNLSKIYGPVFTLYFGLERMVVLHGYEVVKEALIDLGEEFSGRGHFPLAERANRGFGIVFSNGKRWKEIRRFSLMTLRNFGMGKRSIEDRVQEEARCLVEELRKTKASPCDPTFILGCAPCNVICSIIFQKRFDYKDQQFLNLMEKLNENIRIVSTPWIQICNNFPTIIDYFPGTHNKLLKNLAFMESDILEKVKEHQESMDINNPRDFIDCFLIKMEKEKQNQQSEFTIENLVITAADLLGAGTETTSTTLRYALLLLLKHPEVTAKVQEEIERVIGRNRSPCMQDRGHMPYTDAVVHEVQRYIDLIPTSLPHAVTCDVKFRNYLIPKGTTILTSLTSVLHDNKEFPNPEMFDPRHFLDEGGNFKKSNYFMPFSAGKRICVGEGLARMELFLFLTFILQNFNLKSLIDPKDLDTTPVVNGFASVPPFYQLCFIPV
In a further data set the target is Cytochrome P450 3A4 (Homo sapiens, UniProt P08684).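 Also: CYP3A4 tested as one member of a cytochrome P450 panel screen.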
Chain of Cytochrome P450 3A4 (P08684 whole entry): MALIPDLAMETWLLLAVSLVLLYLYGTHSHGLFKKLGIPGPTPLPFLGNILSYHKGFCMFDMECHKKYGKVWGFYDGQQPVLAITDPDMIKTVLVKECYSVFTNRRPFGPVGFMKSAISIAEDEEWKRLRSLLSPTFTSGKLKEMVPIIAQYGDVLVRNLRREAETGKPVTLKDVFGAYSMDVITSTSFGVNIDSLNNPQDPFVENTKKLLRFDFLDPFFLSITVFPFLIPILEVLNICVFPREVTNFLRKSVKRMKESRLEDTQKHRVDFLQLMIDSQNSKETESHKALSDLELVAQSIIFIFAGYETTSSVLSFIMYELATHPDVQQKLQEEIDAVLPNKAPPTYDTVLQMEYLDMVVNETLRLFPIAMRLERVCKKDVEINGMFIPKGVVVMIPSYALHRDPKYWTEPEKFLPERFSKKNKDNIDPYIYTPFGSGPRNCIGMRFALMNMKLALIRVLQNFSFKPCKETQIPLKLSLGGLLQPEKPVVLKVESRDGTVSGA
The nature of data set [12]: HEp-2 cell cytotoxicity, dose response, cytotoxicity control for RSV inhibitor project, HTS (AID 2410). In kind it is functional. To be noted: human respiratory syncytial virus.

Each structure is given as a SMILES string. Calls of active or inactive are those of the source. A value given as a limit tells only on which side of the number the result lay.

As to `Cc1cc2nc(CCN(C(S)=NCC3CCCO3)C3CCCC3)[nH]c2cc1C` (stereo unspecified), the EC50 in [1] was > 260 µM (inactive).
For the compound `C=CCn1c(Oc2ccccc2)nc2c1c(=O)n(C)c(=O)n2C`, the EC50 in data set [2] is > 53 µM (inactive).
Regarding `O=C(NCCCN1CCCCC1)c1ccc2c(=O)n(CCc3ccccc3)c(=O)[nH]c2c1`, the EC50 in data set [3] is 12.2 µM (active); in [4], > 120 µM (not active); in the data set on H4, 93.9 µM (active).
For the compound `CC(C)(C)NC(=O)NC(=O)CN1CC=C(c2ccccc2)CC1`, the EC50 in data set [1] is > 260 µM (inactive).
As for `COc1ccc(CCC(=O)NCCS(=O)(=O)N2CCN(c3ccccc3OC)CC2)cc1`, the EC50 (in data set [3]; in data set [4]; in the data set on H4) was > 120 µM (not active) throughout.
`O=C(NCCO)c1c(O)c2cccc3c2n(c1=O)CC3`: in data set [5], the IC50 is > 47.1 µM (inactive). Moreover, the EC50 in data set [2] is > 53 µM (inactive).
On to `Cc1cc(C(=O)Nc2ccccc2C(=O)O)ccc1NC(=O)COc1cccc([N+](=O)[O-])c1`, for which the EC50 in [6] was 3.79 µM (active); in [7], 22.8 µM (inconclusive).
Turning to `COc1cc2nc(SCc3ccc(Cl)cc3Cl)n(Cc3cccs3)c(=N)c2cc1OC`, the EC50 in data set [6] was > 38 µM (not active); in data set [8], 2.09 µM (active); in data set [9], > 60 µM (inconclusive); in [7], > 160 µM (inactive).
For the compound `CC(C)n1c(N2CCN(C(=O)Nc3ccc(Cl)cc3)CC2)nc2ccccc21`, the values for the EC50 in [6] and in [7] were > 38 µM (not active) and 140 µM (active), respectively.
In the case of `CCCCOC(=O)c1ccc(NC(=S)NC(=O)c2c(Br)c(C)nn2C)cc1`, the EC50 in “cells [10]” was 44.9 µM (active); in the data set “cells [11]”, > 350 µM (not active).
With `CC(=O)Nc1cc(C(N)=O)c(Cl)cc1Cl`, the IC50 in [5] was > 47.1 µM (inactive). In addition, the EC50 in data set [2] was > 53 µM (inactive).
`Cc1ccc(C(=O)c2c3ccccc3[n+]([O-])n2[C@@H](C)C(N)=O)cc1`: the figures for the EC50 (in data set [3]; in data set [4]; in the data set on H4) were 11.2 µM (active), 6.39 µM (active) and 38 µM (active), respectively.
Take `CC(=O)Nc1ccc(S(=O)(=O)N2CCC(NC(C)=O)(c3cccc(F)c3)CC2)cc1`: the IC50 in data set [5] was > 47.1 µM (inactive). Moreover, the EC50 in [2] is > 53 µM (inactive).
Regarding `CC(=O)N1CCN(c2ccc(NC(=O)c3ccc(C(C)(C)C)cc3)cc2)CC1`, the EC50 in data set [6] is 7.14 µM (active); in data set [7] it was > 160 µM (inactive).
In the case of `CN(CC(=O)NCc1ccc(F)cc1)S(=O)(=O)c1ccc(Br)s1`, the IC50 in data set [5] was > 47.1 µM (inactive). Besides, in [2], the EC50 is > 53 µM (inactive).
Regarding `O=[N+]([O-])c1ccc(OCCCCN2CCCCC2)cc1`, the EC50 in the data set “cells [10]” and in the data set “cells [11]” was > 350 µM (not active) in each case.
On to `CCC(=O)c1ccc(N2CCN(C(=O)c3ccc(Br)cc3)CC2)c(F)c1`, for which the EC50 in the data set “cells [10]” and in “cells [11]” was > 350 µM (not active) throughout.
Regarding `CN(Cc1cccc(C(F)(F)F)c1)C(=O)C1CCC(=O)N(CC2CCCCC2)C1` (stereo unspecified), the EC50 in the data set “cells [10]” and in the data set “cells [11]” was > 350 µM (not active) in each case.
Consider `CCn1c(SCC(=O)N/N=C/C=C/c2ccco2)nc2ccccc21`, for which the EC50 in data set [1] was > 260 µM (inactive).
Still for that read-out and setting: next, `CCc1cc(=O)oc2c(CNCc3ccccc3F)c(O)c(Cl)cc12`: > 260 µM (inactive); `CCN=C(S)N1CCN(S(=O)(=O)c2cccc(C(F)(F)F)c2)CC1`: > 260 µM (inactive).
In the case of `CCNS(=O)(=O)c1ccc(NC(=O)c2cncc(Br)c2)cc1`, the EC50 in the data set “cells [10]” and in the data set “cells [11]” was > 350 µM (not active) throughout.
`COc1ccccc1-n1c(C)cc(SC)c(C(C)=O)c1=S`: the EC50 in [6] was 14 µM (active); in data set [7], > 150 µM (inactive).
Regarding `Cc1ccc2nc(SCC(=O)N3CCOCC3)[nH]c2c1`, the IC50 in data set [5] is > 47.1 µM (inactive). In [2], the EC50 is > 53 µM (inactive).
For `CCOc1ccccc1N(CC(=O)N1CCC(C(N)=O)CC1)S(=O)(=O)c1ccc(SC)cc1` the same measures were > 47.1 µM (inactive) and > 53 µM (inactive).
`CCOc1ccccc1CN1CCNC(=O)C1CC(=O)NCc1nccn1CC` (stereo unspecified): in [1], the EC50 is > 260 µM (inactive).
With `O=C(CCCC1=NS(=O)(=O)c2ccccc2N1)N1CCN(c2ccccc2)CC1`, the EC50 in data set [1] was > 260 µM (inactive).
For the compound `Cc1nnc(Sc2nc3c(c(=O)n(C)c(=O)n3C)n2Cc2ccccc2Cl)s1`, the EC50 in data set [1] was > 260 µM (inactive).
On to `Cc1nn(C)c(=O)n1-c1ccc(OCc2ccccc2)cc1`, for which the EC50 was 49.9 µM (active) in data set [3], 8.8 µM (active) in data set [4] and 12.9 µM (active) in the data set with H4.
Taken in the same sequence, the figures for `O=C(OCC(=O)c1cccs1)C1=COCCO1` were 9.36 µM (active), 15.4 µM (active) and 8.15 µM (active).
On to `COc1ccc(/C=N/NC(=O)c2cccnc2)c(C(=O)O)c1OC`, for which, in [1], the EC50 is > 260 µM (inactive).
As usually defined, the AC50 is the midpoint of the concentration-response curve, whichever way the signal moves. As to `Cc1nc2ncnn2c(C)c1CCC(=O)NCc1ccco1`, the EC50 in [1] is > 260 µM (inactive). Moreover, the AC50 entry at Cytochrome P450 2C19 was “inconclusive”; at Cytochrome P450 3A4, 10 µM (inconclusive).
`[O-][n+]1c2ccccc2c2n1CCCN=C2c1ccc(Cl)cc1`: the EC50 in [3] is 8.34 µM (active); in data set [4] it was 7.98 µM (active); in the data set on H4 it was 41.8 µM (active).
`Cc1ccc(NC(=O)c2cc(=O)c3ccccc3o2)cc1`: the EC50 in data set [3] was 17.9 µM (active); in [4], 1.12 µM (active); in the data set on H4, 21.6 µM (active).
One may read the CC50 as the concentration at which the toxic effect on the cells reaches its halfway point. For `Clc1ccc(-c2[nH]nc3c2CCCC3)cc1`, the EC50 is 16.2 µM (active) in data set [3], 10.4 µM (active) in data set [4] and 54.4 µM (active) in the data set with H4. Besides, in data set [12], the cytotoxic concentration (CC50) is 37.1 µM (active).
For the compound `Cc1ccc(NC(=O)/C(C#N)=C/c2cn(CC(=O)NCc3ccco3)c3ccccc23)cc1C`, the IC50 in [5] was > 47.1 µM (inactive). Besides, the EC50 in data set [2] is > 53 µM (inactive).
Turning to `CCOc1ccc(C(=O)Nc2ccc3c(c2)OCCO3)cc1`, the EC50 in data set [1] is > 260 µM (inconclusive).
As to `CCOC(=O)C1(Cc2ccc(OC)cc2)CCN(C(=O)c2cc3ccccc3[nH]2)CC1`, the EC50 in [1] is 30.3 µM (active).
On to `CCOC(=O)c1ccc(S(=O)(=O)NNC(=O)COc2ccccc2C)cc1`, for which the EC50 in “cells [10]” and in the data set “cells [11]” was > 350 µM (not active) in each case.
For the compound `CCc1cc(C=C(Cl)Cl)oc(=O)c1C`, the EC50 in [3] is 8.12 µM (active); in data set [4], 6.98 µM (active); with H4 it was > 120 µM (not active).
